From patent US8129355B2, “Ketone ligands for modulating the expression of exogenous genes via an ecdysone receptor complex” (priority 2002, dated 2012)
pEC50: −log10 of the molar value.

Assays:
[1] = target: T1, GAL4 DBD (1-147)-CfEcR(DEF)/VP16AD-βRXREF-LmUSPEF (Choristoneura fumiferana, UniProt O77240); test: 27-63 assay: luciferase reporter gene expression in stable CHO cell clone 27-63; conditions: for 27-63 Rel Max FI: maximum fold induction at any concentration relative to that of GS-E ligand; for CC50: read-out: 27-63 LC50, average, dose response, three-parameter logistic model
T1 sequence (O77240 191-513): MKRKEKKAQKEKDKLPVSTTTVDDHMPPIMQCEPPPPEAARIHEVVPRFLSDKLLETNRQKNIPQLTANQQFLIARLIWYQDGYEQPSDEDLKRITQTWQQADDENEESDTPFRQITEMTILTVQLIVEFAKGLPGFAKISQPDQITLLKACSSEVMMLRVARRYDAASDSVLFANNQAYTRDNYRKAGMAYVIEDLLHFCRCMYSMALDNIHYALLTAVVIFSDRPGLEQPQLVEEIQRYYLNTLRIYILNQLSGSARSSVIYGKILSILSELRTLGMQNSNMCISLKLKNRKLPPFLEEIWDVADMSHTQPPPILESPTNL
T1 sequence (P28702 296-455 partner limits assumed): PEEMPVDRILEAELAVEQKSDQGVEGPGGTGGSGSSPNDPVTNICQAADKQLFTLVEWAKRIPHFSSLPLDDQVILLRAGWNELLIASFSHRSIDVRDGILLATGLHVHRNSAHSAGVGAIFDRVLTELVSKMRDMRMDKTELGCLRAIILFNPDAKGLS
How it was run: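 CHO clone stably expressing GAL4 DBD-CfEcR(DEF) and VP16AD-HsRXRβ/LmUSP EF chimera plus a 5XGAL4RE-luciferase reporter; ligands given at 8 concentrations (33 μM to 0.01 μM), luminescence read 48 h after treatment. Fold induction versus DMSO cells; BC50 from three-parameter logistic fit.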

[2] = target: T2, GAL4 DBD-CfEcR(DEF)/VP16AD-MmRXRE (Choristoneura fumiferana, UniProt O77240); test: cell-based; conditions: for fold induction at 33 µM: CHO, read-out: Fold Induction Average, 13B3 Assay (33 μM); for 13B3 Rel Max FI: maximum fold induction at any concentration relative to that of GS-E ligand
T2 sequence (O77240 1-513): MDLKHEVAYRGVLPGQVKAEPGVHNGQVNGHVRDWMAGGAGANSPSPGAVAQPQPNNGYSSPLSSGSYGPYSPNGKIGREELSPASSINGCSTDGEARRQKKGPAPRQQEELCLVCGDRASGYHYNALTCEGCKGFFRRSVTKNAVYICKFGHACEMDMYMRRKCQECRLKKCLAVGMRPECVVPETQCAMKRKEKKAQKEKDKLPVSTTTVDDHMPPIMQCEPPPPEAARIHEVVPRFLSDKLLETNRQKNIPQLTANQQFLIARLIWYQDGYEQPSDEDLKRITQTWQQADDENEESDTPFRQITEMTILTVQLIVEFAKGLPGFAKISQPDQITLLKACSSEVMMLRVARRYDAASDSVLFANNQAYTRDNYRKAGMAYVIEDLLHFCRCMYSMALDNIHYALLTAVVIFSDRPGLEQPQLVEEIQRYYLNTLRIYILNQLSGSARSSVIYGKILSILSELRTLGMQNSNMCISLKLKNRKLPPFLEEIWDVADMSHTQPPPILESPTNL
How it was run: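 Stable CHO clone 13B3 expressing GAL4 DBD-CfEcR(DEF) and VP16AD-mouse RXR(DE) with GAL4 RE-luciferase reporter. Ligands tested at 8 concentrations, 33–0.01 μM; luciferase read 48 h after treatment. Fold induction versus DMSO; BC50 from three-parameter logistic fit.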

Row | SMILES | 27-63 Rel Max FI [1] | CC50 [1] [µM] | pEC50 [2] | fold induction at 33 µM [2] | 13B3 Rel Max FI [2] | fold induction at 33 µM ([1]; CHO, read-out: Fold Induction Average, 27-63 Assay (33 μM))
1 | CCc1c(OC)cccc1C(=O)NC1(C(=O)c2ccccc2)CCCC1 [Example 21] | 0.09 | > 33 | < 4.48 | 2 | 0.00 | 
2 | COc1cccc(C(=O)NC2(C(=O)c3cccc(C)c3)CCSCC2)c1C [Example 26] | 0.83 | 11 | ~4.70 |  | 0.11 | 
3 | COc1cccc(C(=O)NC2(C(=O)c3cc(C)cc(C)c3)CCSCC2)c1C [Example 28] | 0.85 | 1.8 | 5.49 | 3180 | 0.74 | 
4 | COc1cccc(C(=O)NC2(C(=O)c3cc(C)cc(C)c3)CCC2)c1C [Example 14] | 0.89 | ~10 | 5.18 | 1024 | 0.33 | 
5 | COc1cccc(C(=O)C(C)(CC(C)C)NC(=O)c2cccc(OC)c2C)c1 (stereo not shown) [Example 53] | 0.00 | > 33 | < 4.48 |  | 0.00 | 
6 | COc1cccc(C(=O)NC2(C(=O)c3cc(C)cc(C)c3)CCC3(CC2)OCCO3)c1C [Example 29] | 0.00 | > 33 | < 4.48 | 5 | 0.00 | 
7 | COc1cc(C(=O)C2(NC(=O)c3cccc(OC)c3C)CCCCC2)cc(OC)c1C [Example 66] | 0.76 | 14.5 | 4.62 | 357 | 0.50 | 
8 | CCC(CC)(NC(=O)c1cccc(OC)c1C)C(=O)c1cccc(OC)c1 [Example 49] | 0.00 | > 33 | < 4.48 |  | 0.00 | 
9 | COc1cccc(C(=O)NC2(C(=O)c3cc(C)cc(C)c3)CCS(=O)(=O)CC2)c1C [Example 62] | 0.04 | ~30 | < 4.48 | 3 | 0.00 | 224
10 | COc1cccc(C(=O)NC2(C(=O)c3ccc(F)cc3)CCCC2)c1C [Example 42] | 0.01 | > 33 | < 4.48 | 4 | 0.00 | 
11 | COc1cccc(C(=O)NC2(C(=O)c3cccc(C)c3)CCOCC2)c1C [Example 25] | 0.00 | > 33 | < 4.48 | 117 | 0.00 | 
12 | CCC(CC)(NC(=O)c1cccc(OC)c1C)C(=O)c1cc(C)cc(C)c1 [Example 51] | 0.54 | 6.23 | ~4.82 | 1380 | 0.64 | 
13 | COc1cccc(C(=O)C2(NC(=O)c3cccc(OC)c3C)CCCCC2)c1 [Example 4] | 1.06 | 4.28 | 5.46 | 45 | 0.64 | 
14 | CCC(CC)(NC(=O)c1cccc(OC)c1C)C(=O)c1ccccc1OC [Example 37] | 0.81 | ~18 | < 4.48 | 885 | 0.08 | 
15 | COc1cccc(C(=O)NC(C)(Cc2ccccc2)C(=O)c2cc(C)cc(C)c2)c1C (stereo not shown) [Example 12] | 0.00 | > 33 | < 4.48 | 72 | 0.00 | 
16 | COc1cccc(C(=O)NC2(C(=O)c3ccc(F)cc3)CCCCC2)c1C [Example 60] | 0.35 | ~9 | < 4.48 | 578 | 0.01 | 
17 | COc1ccccc1C(=O)C1(NC(=O)c2cccc(OC)c2C)CCCC1 [Example 40] | 0.67 | 6.61 | ~4.82 | 2170 | 0.58 | 
18 | COc1cccc(C(=O)NC2(C(=O)c3ccc(F)c(C)c3)CCCCC2)c1C [Example 18] | 0.53 | 3.27 | 5.40 | 50200 | 0.29 | 
19 | CCC(CC)(NC(=O)c1cccc(OC)c1C)C(=O)c1ccc(F)c(C)c1 [Example 50] | 0.00 | > 33 | < 4.48 | 1 | 0.00 | 
20 | COc1cccc(C(=O)NC2(C(=O)c3ccccc3C)CCCCC2)c1C [Example 44] | 0.07 | > 33 | < 4.48 | 36 | 0.00 | 
21 | COc1cccc(C(=O)NC(C)(C(=O)c2cc(C)cc(C)c2)C(C)C)c1C (stereo not shown) [Example 20] | 0.71 | 2.56 | 5.40 |  | 0.92 | 
22 | CCc1c(C(=O)NC2(C(=O)c3ccccc3)CCCC2)ccc2c1OCCO2 [Example 22] | 0.60 | 10.8 | < 4.48 | 4 | 0.00 | 
23 | COc1cccc(C(=O)NC2(C(=O)c3cc(F)c(F)c(OC)c3)CCCCC2)c1C [Example 68] | 0.98 | 3.7 | 5.06 | 819 | 1.00 | 
24 | CCC(CC)(NC(=O)c1cccc(OC)c1C)C(=O)c1cccc(C)c1 [Example 48] | 0.11 | > 33 | ≤ 4.48 | 12 | 0.00 | 
25 | COc1cccc(C(=O)C(C)(NC(=O)c2cccc(OC)c2C)C(C)C)c1 (stereo not shown) [Example 32] | 0.01 | > 33 | < 4.48 | 96 | 0.00 | 
26 | CCC(CC)(NC(=O)c1cccc(OC)c1C)C(=O)c1ccc(F)cc1 [Example 38] | 0.00 | > 33 | < 4.48 | 18 | 0.00 | 
